Measurements as given in article PMC8956739, “A synthetic lipopeptide targeting top-priority multidrug-resistant Gram-negative pathogens” (Nature Communications, 2022).
Where “and” joins values, the source holds several entries; their conditions need not be identical. Identical values can stand only once. Residues, ends and D or L forms follow the SMILES beside them.

How the values were obtained:
P. aeruginosa ATCC 27853 = assay: Neutropenic mouse bloodstream infection model; assay type: in vivo; details: single IV dose 4 mg/kg
Outline: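 Female Swiss mice made neutropenic with cyclophosphamide (150 mg/kg day −4, 100 mg/kg day −1), infected IV with 50 µL of 4 × 10^8 CFU/mL. Lipopeptide 4 mg/kg (free base) IV at 2 h post-inoculation, n = 3. Efficacy = Δlog10 CFU/mL blood versus saline at 4 h post-dose.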

[1] = test system: MDR clinical isolates of Enterobacterales (n = 177, 152 carbapenem-resistant); assay: Extended MIC screening, MDR clinical isolates; assay type: cell-based
Description: MICs were determined in cation-adjusted Mueller–Hinton broth (CaMHB) by the broth micro-dilution method against ATCC strains and clinical isolates. MICs in the presence of Survanta® were determined as described above against P. aeruginosa ATCC 27853. In the 100 μL of fresh CaMHB containing polymyxins, 10% Survanta® (v/v, 2.5 mg/mL phospholipids) was added. MICs in the presence and absence of Survanta® were compared to determine the effect of binding to lung surfactant on the antibacterial activity of polymyxins.

[2] = test system: K. pneumoniae FADDI-KP065; assay type: cell-based, Klebsiella pneumoniae; details: carbapenem-resistant isolate
Outline: (§1)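 Cation-adjusted Mueller–Hinton broth was used with the broth microdilution method to set MICs against clinical isolates. A separate run on P. aeruginosa ATCC 27853 added 10% Survanta® (v/v, 2.5 mg/mL phospholipids) to gauge lung-surfactant binding of polymyxins.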

[3] = test system: K. pneumoniae FADDI-KP032; assay type: cell-based, Klebsiella pneumoniae; details: carbapenem-resistant isolate
Outline: as §1

A. baumannii AB5075 = assay: Transcriptomic analysis (RNA-Seq) of bacteria; assay type: cell-based, Acinetobacter baumannii; details: for logFC (Differential gene expression for all genes), Geneid ABUW_RS00005 / logFC (Differential gene expression for all genes), Geneid ABUW_RS00020 / logFC (Fold change), gene ABUW_RS00010 / logFC (Fold change), gene ABUW_RS00030 / logFC (Fold change), gene ABUW_RS00035 / logFC (Fold change), gene recF (ABUW_RS00015) / 4h_1h logFC (Differential gene expression for all genes), Geneid ABUW_RS00005 / 4h_1h logFC (Differential gene expression for all genes), Geneid ABUW_RS00010 / 4h_1h logFC (Differential gene expression for all genes), Geneid ABUW_RS00015 / 4h_1h logFC (Differential gene expression for all genes), Geneid ABUW_RS00020: RNA-Seq A. baumannii AB5075; for log2FC, gene ABUW_RS01945 (acyl-CoA thioesterase II) / log2FC, gene ABUW_RS02545 (acyl-CoA thioesterase) / log2FC, gene ABUW_RS05045 (acyl-CoA thioesterase) / log2FC, gene ABUW_RS17575 (acyl-CoA thioesterase): pathway Fatty Acid and Lipid Degradation; for 4h_1h logFC (Differential gene expression for all genes), Geneid ABUW_RS00005 / 4h_1h logFC (Differential gene expression for all genes), Geneid ABUW_RS00010 / 4h_1h logFC (Differential gene expression for all genes), Geneid ABUW_RS00015 / 4h_1h logFC (Differential gene expression for all genes), Geneid ABUW_RS00020: 4h vs 1h
Description: Mid-log phase A. baumannii AB5075 (~10^8 CFU/mL) in CaMHB was treated with colistin (2 and 8 μg/mL), F287, F319 or F365 (equimolar concentration to colistin) for 1 and 4 h. Total RNA was extracted using TRIzol Reagent (Invitrogen, USA) and RNeasy Mini Kit (Qiagen, Germany). Quality check of RNA samples was conducted with NanoDrop (Thermo Fisher Scientific, USA) and Agilent 2100 Bioanalyzer (Agilent Technologies, USA) for sequencing (150 bp paired-end) at Genewiz (Shanghai, China). Raw reads were aligned to A. baumannii AB5075 genome (GCF_000963815, https://www.ncbi.nlm.nih.gov/assembly/GCF_000963815.1/) using subread-aligner (subread 2.0.1) and summarized by featureCounts (subread 2.0.1). Principal component analysis (PCA) was conducted with mixOmics 6.14.1 in R. Differentially expressed genes were determined using limma 3.46.0 with a combination of fold change ≥ 2 and false discovery rate (FDR, by Benjamini–Hochberg algorithm) adjusted P-value ≤ 0.05 (n = 3). Enrichment analysis of gene differential expression in AB5075 was conducted using BioCyc (A. baumannii AB5075, version 25.5). UpSetR 1.4.0, ComplexHeatmap 2.6.2 and circlize 0.4.13 were used for data visualization. Raw data were deposited in Short Reads Archive (SRA) database under accession numbers SRR15235669-SRR15235725.

Compound: CC[C@@H]1NC(=O)[C@@H](CC(C)C)NC(=O)[C@H](CCN)NC(=O)[C@@H](NC(=O)[C@H](CN)NC(=O)[C@@H](NC(=O)[C@H](CCN)NC(=O)c2ccc(Cl)cc2Cl)[C@@H](C)O)CCNC(=O)[C@H]([C@@H](C)O)NC(=O)[C@H](CCN)NC(=O)[C@H](CCN)NC1=O [Lipopeptide F365] (HELM PEPTIDE1{[O=C(c1ccc(Cl)cc1Cl)[*:2]].[Dab].T.[NC[C@H](N[*:1])C(=O)[*:2]].[Dab].[Dab].[dL].[Abu].[Dab].[Dab].T}$PEPTIDE1,PEPTIDE1,5:R3-11:R2$$$V2.0)
- Log10 CFU/mL blood at 4 h, Mean (P. aeruginosa ATCC 27853; 4 h): 4.36 Log10 CFU/mL blood
- Δlog10 CFU/mL blood (mean) (P. aeruginosa ATCC 27853; 4 h, treated minus control, mean of replicates, 4 mg/kg): −3.44 log10 CFU/mL blood
- Log10 CFU/mL blood at 4 h, single mouse (P. aeruginosa ATCC 27853; 4 h, 4 mg/kg): 5.03 Log10 CFU/mL blood and 4.95 Log10 CFU/mL blood and 3.10 Log10 CFU/mL blood
- Delta Log10 CFU/mL blood at 4 h, single mouse (P. aeruginosa ATCC 27853; treated mouse minus mean of vehicle mice, 4 mg/kg): -2.77 Log10 CFU/mL blood and -2.85 Log10 CFU/mL blood and -4.70 Log10 CFU/mL blood
- Number of isolates ([1]; isolates with MIC 0.05 µg/mL): 0
- Number of isolates ([1]; isolates with MIC 0.125 µg/mL): 9
- Number of isolates ([1]; isolates with MIC 0.25 µg/mL): 68
- Number of isolates ([1]; isolates with MIC 0.5 µg/mL): 72
- Number of isolates ([1]; isolates with MIC 1 µg/mL): 5
- Number of isolates ([1]; isolates with MIC 2 µg/mL): 1
- Number of isolates ([1]; isolates with MIC 4 µg/mL): 2
- Number of isolates ([1]; isolates with MIC 8 µg/mL): 0
- Number of isolates ([1]; isolates with MIC 16 µg/mL): 5
- Number of isolates ([1]; isolates with MIC 32 µg/mL): 2
- Number of isolates ([1]; isolates with MIC 64 µg/mL): 4
- Number of isolates ([1]; isolates with MIC >64 µg/mL): 6
- MIC K. pneumoniae FADDI-KP065 [2]: <0.125 µg/mL
- MIC K. pneumoniae FADDI-KP032 [3]: <0.125 µg/mL
- logFC (Differential gene expression for all genes), Geneid ABUW_RS00005 (A. baumannii AB5075; H vs Cont, 1h): 0.01563
- logFC (Differential gene expression for all genes), Geneid ABUW_RS00020 (A. baumannii AB5075; H vs Cont, 1h): 0.4229
- logFC (Fold change), gene ABUW_RS00010 (A. baumannii AB5075; H vs Cont, 1h): 0.4611
- logFC (Fold change), gene ABUW_RS00030 (A. baumannii AB5075; H vs Cont, 1h): -0.6384
- logFC (Fold change), gene ABUW_RS00035 (A. baumannii AB5075; H vs Cont, 1h): 1.28
- logFC (Fold change), gene recF (ABUW_RS00015) (A. baumannii AB5075; H vs Cont, 1h): -0.2583
- log2FC, gene ABUW_RS01945 (acyl-CoA thioesterase II) (A. baumannii AB5075; H vs Cont, 1h): 0.05276
- log2FC, gene ABUW_RS02545 (acyl-CoA thioesterase) (A. baumannii AB5075; H vs Cont, 1h): 1.462
- log2FC, gene ABUW_RS05045 (acyl-CoA thioesterase) (A. baumannii AB5075; H vs Cont, 1h): 0.342
- log2FC, gene ABUW_RS17575 (acyl-CoA thioesterase) (A. baumannii AB5075; H vs Cont, 1h): -0.4502
- logFC (Differential gene expression for all genes), Geneid ABUW_RS00005 (A. baumannii AB5075; H vs Cont, 4h): -0.1188
- logFC (Differential gene expression for all genes), Geneid ABUW_RS00020 (A. baumannii AB5075; H vs Cont, 4h): 0.1404
- logFC (Fold change), gene ABUW_RS00010 (A. baumannii AB5075; H vs Cont, 4h): 1.271
- logFC (Fold change), gene ABUW_RS00030 (A. baumannii AB5075; H vs Cont, 4h): -1.908
- logFC (Fold change), gene ABUW_RS00035 (A. baumannii AB5075; H vs Cont, 4h): 1.362
- logFC (Fold change), gene recF (ABUW_RS00015) (A. baumannii AB5075; H vs Cont, 4h): -0.8325
- log2FC, gene ABUW_RS01945 (acyl-CoA thioesterase II) (A. baumannii AB5075; H vs Cont, 4h): -0.9573
- log2FC, gene ABUW_RS02545 (acyl-CoA thioesterase) (A. baumannii AB5075; H vs Cont, 4h): 1.303
- log2FC, gene ABUW_RS05045 (acyl-CoA thioesterase) (A. baumannii AB5075; H vs Cont, 4h): 0.7194
- log2FC, gene ABUW_RS17575 (acyl-CoA thioesterase) (A. baumannii AB5075; H vs Cont, 4h): -2.7329
- 4h_1h logFC (Differential gene expression for all genes), Geneid ABUW_RS00005 (A. baumannii AB5075; H): -0.4851
- 4h_1h logFC (Differential gene expression for all genes), Geneid ABUW_RS00010 (A. baumannii AB5075; H): 0.8595
- 4h_1h logFC (Differential gene expression for all genes), Geneid ABUW_RS00015 (A. baumannii AB5075; H): -1.098
- 4h_1h logFC (Differential gene expression for all genes), Geneid ABUW_RS00020 (A. baumannii AB5075; H): 0.6821
- logFC (Differential gene expression for all genes), Geneid ABUW_RS00005 (A. baumannii AB5075; L vs Cont, 1h): 0.07464
- logFC (Differential gene expression for all genes), Geneid ABUW_RS00020 (A. baumannii AB5075; L vs Cont, 1h): -0.04639
- logFC (Fold change), gene ABUW_RS00010 (A. baumannii AB5075; L vs Cont, 1h): 0.04206
- logFC (Fold change), gene ABUW_RS00030 (A. baumannii AB5075; L vs Cont, 1h): 0.5072
- logFC (Fold change), gene ABUW_RS00035 (A. baumannii AB5075; L vs Cont, 1h): -0.01907
- logFC (Fold change), gene recF (ABUW_RS00015) (A. baumannii AB5075; L vs Cont, 1h): 0.05956
- log2FC, gene ABUW_RS01945 (acyl-CoA thioesterase II) (A. baumannii AB5075; L vs Cont, 1h): 0.4901
- log2FC, gene ABUW_RS02545 (acyl-CoA thioesterase) (A. baumannii AB5075; L vs Cont, 1h): -0.0862
- log2FC, gene ABUW_RS05045 (acyl-CoA thioesterase) (A. baumannii AB5075; L vs Cont, 1h): -0.2681
- log2FC, gene ABUW_RS17575 (acyl-CoA thioesterase) (A. baumannii AB5075; L vs Cont, 1h): -0.08172
- logFC (Differential gene expression for all genes), Geneid ABUW_RS00005 (A. baumannii AB5075; L vs Cont, 4h): 0.1571
- logFC (Differential gene expression for all genes), Geneid ABUW_RS00020 (A. baumannii AB5075; L vs Cont, 4h): -0.1135
- logFC (Fold change), gene ABUW_RS00010 (A. baumannii AB5075; L vs Cont, 4h): 0.2996
- logFC (Fold change), gene ABUW_RS00030 (A. baumannii AB5075; L vs Cont, 4h): 0.4017
- logFC (Fold change), gene ABUW_RS00035 (A. baumannii AB5075; L vs Cont, 4h): 0.1258
- logFC (Fold change), gene recF (ABUW_RS00015) (A. baumannii AB5075; L vs Cont, 4h): -0.3068
- log2FC, gene ABUW_RS01945 (acyl-CoA thioesterase II) (A. baumannii AB5075; L vs Cont, 4h): -0.2225
- log2FC, gene ABUW_RS02545 (acyl-CoA thioesterase) (A. baumannii AB5075; L vs Cont, 4h): -0.9002
- log2FC, gene ABUW_RS05045 (acyl-CoA thioesterase) (A. baumannii AB5075; L vs Cont, 4h): 0.02763
- log2FC, gene ABUW_RS17575 (acyl-CoA thioesterase) (A. baumannii AB5075; L vs Cont, 4h): -0.0188
- 4h_1h logFC (Differential gene expression for all genes), Geneid ABUW_RS00005 (A. baumannii AB5075; L): -0.03686
- 4h_1h logFC (Differential gene expression for all genes), Geneid ABUW_RS00010 (A. baumannii AB5075; L): -0.6141
- 4h_1h logFC (Differential gene expression for all genes), Geneid ABUW_RS00015 (A. baumannii AB5075; L): -0.239
- 4h_1h logFC (Differential gene expression for all genes), Geneid ABUW_RS00020 (A. baumannii AB5075; L): -0.06215
